“Also recorded” adds a separate entry of the source.
Tests used:
Type in all cases: cell-based, human
[1] = tested on: SSTR2; experiment: Differential expression of SSTR2 (qRT-PCR) in iPSC generated pituitary organoids; conditions: for SSTR2 induction relative to SSTR5: PitNET organoids, summary; for induction in SSTR2 expression, mifepristone compared to relacorilant / expression of SSTR2: iPSC organoids; for induction in SSTR2 expression, mifepristone compared to relacorilant: 500 nM each, FIG. 5A; for expression of SSTR2: 500 nM, vs vehicle
Procedure: Sonic Hedgehog (SHH) was withdrawn from the organoid growth media 16 hours prior to treatment. The experimental treatment groups included: vehicle (Veh), mifepristone (500 nM, Selleckchem S2606), GANT61 (5 μM, Stemcell Technologies 73692), ketoconazole (Keto, 10 μM, Selleckchem S1353), pasireotide (Pas, 100 nM, Target Mol TP2207-SB001), octreotide (Oct, 100 nM, Selleckchem P1017), mifepristone plus GANT61, mifepristone plus Keto, mifepristone plus Pas, relacorilant (500 nM, Corcept Therapeutics CORT125134), relacorilant plus Pas, relacorilant plus Oct, or dexamethasone (Dexa, 100 nM, SIGMA S4902). In the combination treatments, cultures were pretreated with the GANT61, Keto, Pas or Oct for 2 hours prior to treatment with mifepristone or Rela. PitNET tissue derived organoids hPITO36, hPITO37, hPITO38, hPITO39, and hPITO40 were treated with the following experimental conditions: Vehicle (1), pasireotide (2), relacorilant (3), relacorilant & pasireotide (4), mifepristone (5), mifepristone & pasireotide (6). The IC50 values used for each hPITO line for each drug were determined based on dose responses (FIG. 12). All organoid cultures were treated for 48 hours prior to analysis.
RNA was extracted from PitNET tissue or iPSC generated organoids using TRI Reagent® (Molecular Research Center Inc TR118) and the High Capacity cDNA Reverse Transcription Kit (Applied Biosystems, Foster City, CA) was used for cDNA synthesis of RNA following the recommended protocol. For each sample, 60 ng RNA was reverse transcribed to yield approximately […] total cDNA that was then used for the qRT-PCR. Pre-designed real-time polymerase chain reaction assays were purchased for the following genes: TPit (Thermo Fisher Scientific 4331182 Hs00193027), SF1 (Thermo Fisher Scientific 4331182 Hs00610436), SSTR2 (Thermo Fisher Scientific 4331182 Hs00265624_s1), SSTR5 (Thermo Fisher Scientific 4331182 Hs00990407_s1), POMC (Thermo Fisher Scientific 4331182 Hs01596743_ml), hPRT (Thermo Fisher Scientific 4331182 Hs02800695_ml), and FKBP5 (Thermo Fisher Scientific 4331182 Hs01561006_m1). Polymerase chain reaction amplifications were performed in a total volume of 20 μL containing 20× TaqMan Expression Assay primers, 2× TaqMan Universal Master Mix (Applied Biosystems, TaqMan® Gene Expression Systems), and cDNA template. Each polymerase chain reaction amplification was performed in triplicate wells in a StepOne Real-Time PCR System (Applied Biosystems) by using the following conditions: 500C 2 minutes, 95° C. 10 minutes, 95° C. 15 seconds (denature) and 60° C. 1 minute (anneal/extend) for 40 cycles. Fold change was calculated as the following: (Ct-Ct high)=n target, 2ntarget/2nHPRT=fold change where Ct=threshold cycle. The results were expressed as average fold change in or differential gene expression relative to control, with HPRT used as an internal control according to Livak and Schmittgen.

[2] = tested on: SSTR5; experiment: Spectral flow cytometry, SSTR5 positive cells, hPITOs; conditions: hPITO, 48 h, FIGS. 9G
From the text: 1.3 Generation and Culture of Human PitNET Tissue Organoids (hPITOs)
Patients undergoing planned transsphenoidal surgery for PitNETs were identified in the outpatient neuroendocrinology and neurosurgery clinics and collected by the St. Joseph's Hospital and Barrow Neurological Institute Biobank under the collection protocol PHXA-05TS038, and outcomes data protocol PHXA-0004-72-29 with approval of the Institutional Review Board (IRB) and patient consent. De-identified samples were shipped in collection and transport media (Table 3) to the Zavros laboratory (University of Arizona) for processing within 24 hours of collection. Resected PitNET tissues were washed with Dulbeccos Phosphate Buffered Saline (DPBS) supplemented with 1× Penicillin/Streptomycin, 1× Kanamycin and 1× Amphotericin/Gentamycin, minced into smaller pieces, and incubated with digestion buffer (Dulbecco's Modified Eagle Medium/Nutrient Mixture F-12 (DMEM/F12) supplemented with 0.4% Collagenase 2, 0.1% Hyaluronic Acid, 0.03% Trypsin). The tissue was incubated with Accutase (Thermo Fisher Scientific) for a further 5 minutes, and the cells were pelleted and washed with DPBS supplemented with antibiotics. Dissociated cells were then seeded as Matrigel™ domes in culture dishes and overlaid with growth media (Table 4). Media was replaced every 3 days and organoids were harvested for downstream experiments or passaged after 15 days of culture (FIG. 1B).
(§1) Sonic Hedgehog (SHH) was withdrawn from the organoid growth media 16 hours prior to treatment. […] The IC50 values used for each hPITO line for each drug were determined based on dose responses (FIG. 12). […]

[3] = tested on: iPSC^ctrl organoids; experiment: Nuclear morphometric analysis (nuclear irregularity index), iPSCctrl organoids; conditions: 500 nM, 48 h
Procedure: Nuclear Morphometric Analysis (NMA) using treated organoids was performed based on a published protocol that measures cell viability based on the changes in nuclear morphology of the cells using nuclear stain Hoechst or DAPI [31]. Images of organoid nuclei were analyzed using the ImageJ Nuclear Irregularity Index (NII) plugin for key parameters that included cell area, radius ratio, area box, aspect, and roundness. Using the published spreadsheet template, the NII of each cell was calculated with the following formula: NII=Aspect−Area Box+Radius Ratio+Roundness. The area vs NII of vehicle-treated cells were plotted as a scatter plot using the template and considered as the normal cell nuclei. […] The percentage of cells in each NII classification category were calculated and plotted as a histogram using GraphPad Prism.
as §1

With `CC#C[C@]1(O)CC[C@H]2[C@@H]3CCC4=CC(=O)CCC4=C3[C@@H](c3ccc(N(C)C)cc3)C[C@@]21C` [mifepristone, 11β-(4-dimethylaminophenyl)-17ß-hydroxy-17α-(1-propynyl)-estra-4,9-dien-3-one] the “SSTR2 induction relative to SSTR5” value [1] was “predominantly induced SSTR2 expression; also recorded: significantly greater induction in SSTR2 than SSTR5”, the “SSTR2 induction relative to SSTR5” value ([1]; listed as Mifepristone) was “induces SSTR2 with greater magnitude compared to SSTR5” and the “induction in SSTR2 expression, mifepristone compared to relacorilant” value ([1]; 48 h) was “preferentially induced the expression of SSTR2”. The “induction in SSTR2 expression, mifepristone compared to relacorilant” value ([1]; 48 h, listed as Mifepristone) was “significantly greater induction in SSTR2 expression when compared to relacorilant”, the “expression of SSTR2” value ([1]; 48 h) was “significant induction; also recorded: significantly induced the expression” and the “differential expression of SSTR2” value ([1]; iPSCctrl organoids, compound alone, 48 h, FIG. 5C, D) was “significantly induced”. For the same molecule, the “percentage of SSTR5 positive cells” value [2] was “significant increase” and the “apoptotic cells by nuclear irregularity index (NII)” value [3] was “not observed; also recorded: induces apoptosis in neither the tumor organoid iPSC^USP48MV nor the control organoid iPSC^ctrl”.
In the case of `Cn1cc(S(=O)(=O)N2CCC3=Cc4c(cnn4-c4ccc(F)cc4)C[C@]3(C(=O)c3cc(C(F)(F)F)ccn3)C2)cn1` [relacorilant, (R)-(1-(4-fluorophenyl)-6-((1-methyl-1H-pyrazol-4-yl)sulfonyl)-4,4a,5,6,7,8-hexahydro-1H-pyrazolo[3,4-g]isoquinolin-4a-yl) (4-(trifluoromethyl)pyridin-2-yl) methanone], the “expression of SSTR2” value ([1]; 48 h) is reported as “significant induction; also recorded: significantly induced the expression”, the “magnitude of SSTR5 induction, relacorilant vs mifepristone” value [2] is reported as “significantly greater than that of mifepristone” and the “percentage of SSTR5 positive cells” value [2] is reported as “significant increase; also recorded: significantly upregulated”. The “apoptotic cells by nuclear irregularity index (NII)” value [3] was “not observed”.

— patent US20260325504A1, “Genetically Engineered Human Pituitary Corticotroph Tumor Organoids Exhibit Divergent Responses to Selective Glucocorticoid Receptor Modulators” (Corcept Therapeutics Incorporated, priority 2022, published 2026)
